A word on the IC50: it is the midpoint of a concentration-inhibition curve. Low values mean higher potency, high ones lower potency.

The test concerns the target T1, Amine oxidase [flavin-containing] B (Homo sapiens, UniProt P27338).
T1 sequence (P27338 whole entry): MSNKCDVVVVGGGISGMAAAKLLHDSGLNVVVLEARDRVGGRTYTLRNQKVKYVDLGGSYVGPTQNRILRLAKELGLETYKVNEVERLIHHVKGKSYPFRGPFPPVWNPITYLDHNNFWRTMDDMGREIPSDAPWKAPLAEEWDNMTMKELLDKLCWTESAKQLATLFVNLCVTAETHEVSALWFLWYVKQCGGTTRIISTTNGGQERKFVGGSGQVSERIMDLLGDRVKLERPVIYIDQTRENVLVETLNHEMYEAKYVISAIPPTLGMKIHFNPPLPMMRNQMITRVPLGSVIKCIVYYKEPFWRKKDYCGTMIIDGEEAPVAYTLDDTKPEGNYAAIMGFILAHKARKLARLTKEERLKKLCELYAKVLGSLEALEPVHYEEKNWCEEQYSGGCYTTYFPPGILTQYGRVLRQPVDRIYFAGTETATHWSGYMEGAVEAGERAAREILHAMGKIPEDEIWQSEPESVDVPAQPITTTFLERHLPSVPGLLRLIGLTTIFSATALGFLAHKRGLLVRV
Briefly: Inhibition of MAO-B (unknown origin).

In the case of `CN(C)CCN1CCN(Cc2ccc(C(=O)Nc3nc4ccccc4s3)cc2)CC1`, the midpoint of inhibition, the IC50, lay at 40 nM.

These data come from BindingDB's records for PubMed 39914143 (COMSATS University Islamabad).
